Test results as given in patent publication US11957759B1, “Rapidly accelerated fibrosarcoma (RAF) degrading compounds and associated methods of use” (Arvinas Operations, Inc., priority 2022, dated 2024).

How the values were obtained:
B-RAF G466V = target: T1, B-RAF G466V (Homo sapiens, UniProt P15056, G466V); test: Target protein degradation, assay D: T-Rex 293 cells, HA-BRAF_G466V, 384 well format; assay type: cell-based; details: T-Rex 293 HA-BRAF_G466V cells, 24 hours, Examples 83-269; for DC50: Assay D; for Dmax: T-REx-293, Assay D
T1 construct: expressed in transfected cells; host or cells: T-Rex 293 cells (Invitrogen #R71007)
T1 sequence (P15056 whole entry G466V): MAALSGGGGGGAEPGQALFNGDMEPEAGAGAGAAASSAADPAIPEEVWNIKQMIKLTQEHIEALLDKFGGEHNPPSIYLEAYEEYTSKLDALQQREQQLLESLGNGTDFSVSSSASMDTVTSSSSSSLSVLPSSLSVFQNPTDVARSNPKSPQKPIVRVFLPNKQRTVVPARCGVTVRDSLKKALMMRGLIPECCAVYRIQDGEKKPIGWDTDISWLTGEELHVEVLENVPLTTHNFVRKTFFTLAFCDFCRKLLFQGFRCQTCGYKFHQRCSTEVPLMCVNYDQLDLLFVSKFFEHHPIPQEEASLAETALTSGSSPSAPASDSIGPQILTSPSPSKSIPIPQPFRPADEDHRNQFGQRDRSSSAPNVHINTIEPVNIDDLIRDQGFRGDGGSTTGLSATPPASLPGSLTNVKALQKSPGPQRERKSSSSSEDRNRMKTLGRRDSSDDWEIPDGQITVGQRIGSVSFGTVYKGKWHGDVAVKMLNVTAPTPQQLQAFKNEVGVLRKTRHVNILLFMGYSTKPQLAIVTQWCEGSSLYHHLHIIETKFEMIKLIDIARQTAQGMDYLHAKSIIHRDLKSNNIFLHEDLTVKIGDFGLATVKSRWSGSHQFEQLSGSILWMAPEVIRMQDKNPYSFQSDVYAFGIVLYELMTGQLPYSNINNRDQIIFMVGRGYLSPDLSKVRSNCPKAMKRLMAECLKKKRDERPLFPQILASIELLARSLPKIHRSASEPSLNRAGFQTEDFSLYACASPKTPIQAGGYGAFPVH
How it was run: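 Degradation measured by high-content imaging of anti-HA immunofluorescence in fixed T-Rex 293 cells carrying inducible HA-BRAF G466V (1 ng/mL doxycycline), after 24 h PROTAC exposure at 37 °C over 300 nM–5 pM (1:3, 11 points, 0.5% DMSO). Outputs DC50 and Dmax as % of control; nuclei counts against DMSO wells gauge toxicity.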

B-RAF V600E = target: T2, B-RAF V600E (Homo sapiens, UniProt P15056, V600E); test: Target protein degradation, assay C: T-Rex 293 cells, HA-BRAF_V600E, 384 well format; assay type: cell-based; details: T-Rex 293 HA-BRAF_V600E cells, 24 hours, Examples 83-269; for DC50: Assay C; for Dmax: T-REx-293, Assay C
T2 construct: expressed in transfected cells; host or cells: T-Rex 293 cells (Invitrogen #R71007)
T2 sequence (P15056 whole entry V600E): as the sequence (P15056 whole entry G466V) above, with V466G, V600E counted along it
How it was run: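 After 24 h exposure to an 11-point 1:3 series (300 nM–5 pM, 0.5% DMSO), fixed T-Rex 293 cells carrying HA-BRAF V600E (induced with 1 ng/mL doxycycline) were stained anti-HA and imaged. DC50 and Dmax were derived from BRAF intensity relative to control, and cytotoxicity from nuclear counts.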

| DC50 (B-RAF G466V) | Dmax (B-RAF G466V) | DC50 (B-RAF V600E) | Dmax (B-RAF V600E) | Structure (SMILES) |
| --- | --- | --- | --- | --- |
| 1 to 10 nM | 35 to 70% | 50 to 500 nM | 35 to 70% | N#Cc1c(NS(=O)(=O)N2CC[C@@H](F)C2)ccc(F)c1Oc1ccc2ncn(-c3ccc(N4CCC5(CCN(CC6CCN(c7ccc8c(c7)CN([C@@H]7CCC(=O)NC7=O)C8=O)CC6)CC5)CC4)cc3)c(=O)c2c1 [Example 201, (3R)-N-(2-cyano-3-{[3-(4-{9-[(1-{2-[(3R)-2,6-dioxopiperidin-3-yl]-1-oxo-2,3-dihydro-1H-isoindol-5-yl}piperidin-4-yl)methyl]-3,9-diazaspiro[5.5]undecan-3-yl}phenyl)-4-oxo-3,4-dihydroquinazolin-6-yl]oxy}-4-fluorophenyl)-3-fluoropyrrolidine-1-sulfonamide] |
| 1 to 10 nM | 35 to 70% | 50 to 500 nM | 35 to 70% | N#Cc1c(NS(=O)(=O)N2CC[C@@H](F)C2)ccc(F)c1Oc1ccc2ncn(-c3ccc(N4CCC5(CC4)CN(CC4CCN(c6ccc7c(c6)CN([C@H]6CCC(=O)NC6=O)C7=O)CC4)C5)cc3)c(=O)c2c1 [Example 202, (3R)-N-(2-cyano-3-{[3-(4-{2-[(1-{2-[(3S)-2,6-dioxopiperidin-3-yl]-1-oxo-2,3-dihydro-1H-isoindol-5-yl}piperidin-4-yl)methyl]-2,7-diazaspiro[3.5]nonan-7-yl}phenyl)-4-oxo-3,4-dihydroquinazolin-6-yl]oxy}-4-fluorophenyl)-3-fluoropyrrolidine-1-sulfonamide] |
| 1 to 10 nM | 35 to 70% | 50 to 500 nM | 35 to 70% | N#Cc1c(NS(=O)(=O)N2CC[C@@H](F)C2)ccc(F)c1Oc1ccc2ncn(-c3ccc(N4CCC5(CC4)CN(CC4CCN(c6ccc7c(c6)CN([C@@H]6CCC(=O)NC6=O)C7=O)CC4)C5)cc3)c(=O)c2c1 [Example 203, (3R)-N-(2-cyano-3-{[3-(4-{2-[(1-{2-[(3R)-2,6-dioxopiperidin-3-yl]-1-oxo-2,3-dihydro-1H-isoindol-5-yl}piperidin-4-yl)methyl]-2,7-diazaspiro[3.5]nonan-7-yl}phenyl)-4-oxo-3,4-dihydroquinazolin-6-yl]oxy}-4-fluorophenyl)-3-fluoropyrrolidine-1-sulfonamide] |
| 1 to 10 nM | ≤ 35% | 50 to 500 nM | 35 to 70% | N#Cc1c(NS(=O)(=O)N2CC[C@@H](F)C2)ccc(F)c1Oc1ccc2ncn(-c3ccc(N4CC(CN5CC(c6ccc7c(c6)CN([C@H]6CCC(=O)NC6=O)C7=O)C5)C4)cc3)c(=O)c2c1 [Example 204] |
| 1 to 10 nM | ≤ 35% | 50 to 500 nM | ≤ 35% | N#Cc1c(NS(=O)(=O)N2CC[C@@H](F)C2)ccc(F)c1Oc1ccc2ncn(-c3ccc(N4CC(CN5CC(c6ccc7c(c6)CN([C@@H]6CCC(=O)NC6=O)C7=O)C5)C4)cc3)c(=O)c2c1 [Example 205, (3R)-N-(2-cyano-3-{[3-(4-{3-[(3-{2-[(3R)-2,6-dioxopiperidin-3-yl]-1-oxo-2,3-dihydro-1H-isoindol-5-yl}azetidin-1-yl)methyl]azetidin-1-yl}phenyl)-4-oxo-3,4-dihydroquinazolin-6-yl]oxy}-4-fluorophenyl)-3-fluoropyrrolidine-1-sulfonamide] |
| 1 to 10 nM | ≤ 35% | 50 to 500 nM | ≥ 70% | CN(CC1CCN(c2ccc(-n3cnc4ccc(Oc5c(F)ccc(NS(=O)(=O)N6CC[C@@H](F)C6)c5C#N)cc4c3=O)cc2)CC1)[C@H]1C[C@@H](Oc2ccc3c(c2)CN([C@H]2CCC(=O)NC2=O)C3=O)C1 [Example 206, (3R)-N-{2-cyano-4-fluoro-3-[(3-{4-[4-({methyl[(1r,3r)-3-({2-[(3S)-2,6-dioxopiperidin-3-yl]-1-oxo-2,3-dihydro-1H-isoindol-5-yl}oxy)cyclobutyl]amino}methyl)piperidin-1-yl]phenyl}-4-oxo-3,4-dihydroquinazolin-6-yl)oxy]phenyl}-3-fluoropyrrolidine-1-sulfonamide] |
